Laboratory results taken from patent publication US20220331257A1, “LIQUID PHARMACEUTICAL COMPOSITIONS WITH STABLE DRUG RELEASE PROFILES” (Avadel Legacy Pharmaceuticals, LLC, priority 2019, published 2022).

Key:
[1] = Osmolality of saturated solutions of drugs in water (vapor pressure osmometer); type: physicochemical
[2] = Solubility of drugs in water (saturated solutions); conditions: saturated solution in water
[3] = Osmolality of osmotic agent solutions (external phase); type: physicochemical; conditions: for Osmolality (extrapolated): third order polynomial fit
Description: In these attempts, the osmolality ratio of the composition was greater than 1 (measured at ambient temperature using a vapor pressure osmometer (model Vapro 5600 XR from ELITech/WESCOR) with a measurement range from 20 mosmol/kg to 3500 mosmol/kg).
To determine the osmolality of the external phase of the compositions, it was assumed that only the osmotic agent contributed to the external phase's osmolality because, in addition to the osmotic agent, the external phase contained only minimal amounts of the suspending agent (e.g., 0.1-0.2 wt %). Measurements were obtained experimentally up to 40 wt % sorbitol and up to 50 wt % maltitol and then extrapolated to 60 wt % using a fit with a third order polynomial form (Table 2). Measurements were also obtained for a commercially available sorbitol solution, NEOSORB® 70/70B, containing 70% of dry substance and a minimum of 74% sorbitol in the dry substance (Table 2).

[4] = Saturation of the continuous phase by the drug; type: physicochemical; conditions: continuous phase 60 wt % maltitol, 0.2 wt % xanthan gum, about pH 7.2
Experimental: A “continuous phase” or “liquid phase” as used herein, refers to the fluid or liquid phase of the suspension in which the particles are dispersed. The continuous phase may not be saturated by the drug. “Not saturated by the drug” as used herein refers to the amount of drug in the continuous phase being less than the amount at which the continuous phase is saturated with the drug at the temperature at which the saturation is measured. The temperature at which saturation is measured corresponds to the temperature at which stability is performed. In an example, saturation is measured at 30° C.

SMILES | Osmolality of saturated solution ([1]; 25° C.) [mosmol/kg] | Solubility ([2]; 25° C.) [mg/g] | Osmolality (experimental) ([3]; dry matter content 10% (wt %)) [mOsm/kg sol] | Osmolality (extrapolated) ([3]; dry matter content 10% (wt %)) [mOsm/kg] | Osmolality (experimental) ([3]; dry matter content 20% (wt %)) [mOsm/kg sol] | Osmolality (extrapolated) ([3]; dry matter content 20% (wt %)) [mOsm/kg] | Osmolality (experimental) ([3]; dry matter content 30% (wt %)) [mOsm/kg sol] | Osmolality (extrapolated) ([3]; dry matter content 30% (wt %)) [mOsm/kg] | Osmolality (experimental) ([3]; dry matter content 40% (wt %)) [mOsm/kg sol] | Osmolality (extrapolated) ([3]; dry matter content 40% (wt %)) [mOsm/kg] | Osmolality (extrapolated) ([3]; dry matter content 50% (wt %)) [mOsm/kg] | Osmolality (extrapolated) ([3]; dry matter content 60% (wt %)) [mOsm/kg] | also measured
Cc1ccc(=O)n(-c2ccccc2)c1 [Pirfenidone, pirfenidone] | 84 | 18 |  |  |  |  |  |  |  |  |  |  | 
CC(=O)Nc1ccc(O)cc1 [Acetaminophen, acetaminophen] | 74 | 14 |  |  |  |  |  |  |  |  |  |  | Osmolality of saturated solution ([1]; 40° C.): 112 mosmol/kg; Solubility ([2]; 40° C.): 20 mg/g
COc1ccccc1OCC(O)CO (centres unmarked) [guaifenesin] |  |  |  |  |  |  |  |  |  |  |  |  | saturation of the continuous phase by the drug [4]: 15.3 mg/g

More lines, main results first:

Osmolality of saturated solution ([1]; 25° C.) [mosmol/kg] | Solubility ([2]; 25° C.) [mg/g] | Osmolality (experimental) ([3]; dry matter content 10% (wt %)) [mOsm/kg sol] | Osmolality (extrapolated) ([3]; dry matter content 10% (wt %)) [mOsm/kg] | Osmolality (experimental) ([3]; dry matter content 20% (wt %)) [mOsm/kg sol] | Osmolality (extrapolated) ([3]; dry matter content 20% (wt %)) [mOsm/kg] | Osmolality (experimental) ([3]; dry matter content 30% (wt %)) [mOsm/kg sol] | Osmolality (extrapolated) ([3]; dry matter content 30% (wt %)) [mOsm/kg] | Osmolality (experimental) ([3]; dry matter content 40% (wt %)) [mOsm/kg sol] | Osmolality (extrapolated) ([3]; dry matter content 40% (wt %)) [mOsm/kg] | Osmolality (extrapolated) ([3]; dry matter content 50% (wt %)) [mOsm/kg] | Osmolality (extrapolated) ([3]; dry matter content 60% (wt %)) [mOsm/kg] | SMILES | also measured
 | 2.5 |  |  |  |  |  |  |  |  |  |  | CC(=O)Oc1ccccc1C(=O)O [Aspirin, aspirin] | 
 |  | 333 | 330 | 779 | 791 | 1340 | 1322 | 2265 | 2277 | 3879 | 6538 | OC[C@@H](O)[C@@H](O[C@H]1O[C@H](CO)[C@@H](O)[C@H](O)[C@H]1O)[C@H](O)[C@@H](O)CO [maltitol] | Osmolality (experimental) ([3]; dry matter content 50% (wt %)): 3882 mOsm/kg sol
 |  | 599 | 610 | 1376 | 1364 | 2407 | 2426 | 4125 | 4122 | 6816 | 10777 | OC[C@@H](O)[C@@H](O)[C@H](O)[C@@H](O)CO [Sorbitol, sorbitol] | Osmolality (experimental) ([3]; dry matter content 5% (wt %)): 276 mOsm/kg sol; Osmolality (extrapolated) ([3]; dry matter content 5% (wt %)): 269 mOsm/kg; Osmolality (experimental) ([3]; dry matter content 15% (wt %)): 954 mOsm/kg sol; Osmolality (extrapolated) ([3]; dry matter content 15% (wt %)): 960 mOsm/kg; Osmolality (experimental) ([3]; dry matter content 25% (wt %)): 1844 mOsm/kg sol; Osmolality (extrapolated) ([3]; dry matter content 25% (wt %)): 1830 mOsm/kg
